# Experimental data published in ChEMBL document CHEMBL3102791, “Synthesis and biological evaluation of 2-aminothiazole derivatives as antimycobacterial and antiplasmodial agents” (Bioorg Med Chem Lett, 2014).
# Key:
# Details in all cases: read-out: Stability
# [1] = Metabolic stability in human liver microsomes assessed as compound remaining at 1 uM after 30 mins by HPLC-MS/MS analysis; type: ADME
# [2] = Metabolic stability in BALB/c mouse liver microsomes assessed as compound remaining at 1 uM after 30 mins by HPLC-MS/MS analysis; type: ADME, Microsome
# [3] = Metabolic stability in rat liver microsomes assessed as compound remaining at 1 uM after 30 mins by HPLC-MS/MS analysis; type: ADME
"remaining at 0.5 h, 1 µM [1] [%]","remaining at 0.5 h, 1 µM [2] [%]","remaining at 0.5 h, 1 µM [3] [%]",SMILES
27.5,7.6,54.5,O=C(Nc1nc(-c2ccccn2)cs1)c1ccccc1
53.8,3.71,47.8,O=C(Nc1nc(-c2ccccn2)cs1)c1ccncc1
14.2,3.61,72.1,O=C(Nc1nc(-c2ccccn2)cs1)c1ccc(F)cc1
24.1,1.61,64.6,N#Cc1ccc(C(=O)Nc2nc(-c3ccccn3)cs2)cc1
> 99,82.4,> 99,O=C(Nc1nc(-c2ccccn2)cs1)c1cccc(Br)c1
8.4,1.33,42.1,O=C(Nc1nc(-c2ccccn2)cs1)c1ccc(Cl)cc1
